Here are results for 22 molecules from US9226916B2, “Pyrrolidine derivatives” (HOFFMANN-LA ROCHE INC., priority 2009, dated 2016).

As usually defined, the Ki is a dissociation constant, usually derived from enzyme kinetics or from competition with a known ligand.

Read-outs that look alike come from different tables or passages of the source.

This test deals with T1, recombinant human NK3 receptor (Homo sapiens, UniProt P29371).
T1 construct: expressed in transfected cells; host or cells: HEK293 cells, transient expression; membranes
T1 sequence (P29371 1-465): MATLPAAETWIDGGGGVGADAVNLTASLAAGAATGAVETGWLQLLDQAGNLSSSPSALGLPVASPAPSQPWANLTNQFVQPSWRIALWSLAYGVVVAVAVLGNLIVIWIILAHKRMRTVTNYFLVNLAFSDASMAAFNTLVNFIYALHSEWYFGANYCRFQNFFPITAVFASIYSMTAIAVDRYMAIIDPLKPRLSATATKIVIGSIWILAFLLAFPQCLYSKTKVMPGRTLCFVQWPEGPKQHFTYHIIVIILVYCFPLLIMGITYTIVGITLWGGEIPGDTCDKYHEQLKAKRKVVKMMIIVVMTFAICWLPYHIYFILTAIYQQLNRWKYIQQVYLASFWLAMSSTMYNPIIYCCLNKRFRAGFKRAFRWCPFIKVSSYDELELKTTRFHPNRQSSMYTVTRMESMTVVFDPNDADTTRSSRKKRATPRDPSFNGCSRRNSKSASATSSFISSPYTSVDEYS
In words: [3H]SR142801 competition binding assay.

[1] abbreviates: hNK-3 receptor affinity, membranes from HEK293 cells transiently expressing recombinant human NK3 receptor, [3H]SR142801, Cheng-Prussoff, read-out: Data Ki.

For `CN(C(=O)Oc1cccc(C#N)c1)[C@@H]1CN(C(=O)C2CCN(c3ccc(C#N)cn3)CC2)C[C@H]1c1ccc(Cl)cc1` [Example 225, [(3S,4R)-4-(4-Chloro-phenyl)-1-(5′-cyano-3,4,5,6-tetrahydro-2H-[1,2′]bipyridinyl-4-carbonyl)-pyrrolidin-3-yl]-methyl-carbamic acid 3-cyano-phenyl ester], the Ki is 11.2 nM. For the molecule `CC(OC(=O)N(C)[C@@H]1CN(C(=O)C2CCN(c3ccc(C#N)cn3)CC2)C[C@H]1c1ccc(Cl)cc1)c1ccc(F)cc1` (stereo partly drawn) [Example 226, [(3S,4R)-4-(4-Chloro-phenyl)-1-(5′-cyano-3,4,5,6-tetrahydro-2H-[1,2′]bipyridinyl-4-carbonyl)-pyrrolidin-3-yl]-methyl-carbamic acid 1-(4-fluoro-phenyl)-ethyl ester], the Ki is 79.2 nM. With `CN(C(=O)Oc1ccc(C#N)cc1)[C@@H]1CN(C(=O)C2CCN(c3ccc(C#N)cn3)CC2)C[C@H]1c1ccc(Cl)cc1` [Example 228, [(3S,4R)-4-(4-Chloro-phenyl)-1-(5′-cyano-3,4,5,6-tetrahydro-2H-[1,2′]bipyridinyl-4-carbonyl)-pyrrolidin-3-yl]-methyl-carbamic acid 4-cyano-phenyl ester], the Ki came out at 0.8 nM. For `Cc1ccccc1OC(=O)N(C)[C@@H]1CN(C(=O)C2CCN(c3ccc(C#N)cn3)CC2)C[C@H]1c1ccc(Cl)cc1` [Example 229, [(3S,4R)-4-(4-Chloro-phenyl)-1-(5′-cyano-3,4,5,6-tetrahydro-2H-[1,2′]bipyridinyl-4-carbonyl)-pyrrolidin-3-yl]-methyl-carbamic acid o-tolyl ester], the Ki came to 16.8 nM. Turning to `Cc1cccc(OC(=O)N(C)[C@@H]2CN(C(=O)C3CCN(c4ccc(C#N)cn4)CC3)C[C@H]2c2ccc(Cl)cc2)c1` [Example 230, [(3S,4R)-4-(4-Chloro-phenyl)-1-(5′-cyano-3,4,5,6-tetrahydro-2H-[1,2′]bipyridinyl-4-carbonyl)-pyrrolidin-3-yl]-methyl-carbamic acid m-tolyl ester], the inhibition constant (Ki) was determined as 2.7 nM. Regarding `CN(C(=O)OCC1CCOCC1)[C@@H]1CN(C(=O)C2CCN(c3ccc(C#N)cn3)CC2)C[C@H]1c1ccc(Cl)cc1` [Example 231, [(3S,4R)-4-(4-Chloro-phenyl)-1-(5′-cyano-3,4,5,6-tetrahydro-2H-[1,2′]bipyridinyl-4-carbonyl)-pyrrolidin-3-yl]-methyl-carbamic acid tetrahydro-pyran-4-ylmethyl ester], the Ki under setting [1] is 5.7 nM. Regarding `CN(C(=O)OCC1CCCO1)[C@@H]1CN(C(=O)C2CCN(c3ccc(C#N)cn3)CC2)C[C@H]1c1ccc(Cl)cc1` (stereo partly drawn) [Example 232, [(3S,4R)-4-(4-Chloro-phenyl)-1-(5′-cyano-3,4,5,6-tetrahydro-2H-[1,2′]bipyridinyl-4-carbonyl)-pyrrolidin-3-yl]-methyl-carbamic acid tetrahydro-furan-2-ylmethyl ester], the Ki came to 21.8 nM.

Take `CN(C(=O)OCC1CCOC1)[C@@H]1CN(C(=O)C2CCN(c3ccc(C#N)cn3)CC2)C[C@H]1c1ccc(Cl)cc1` (stereo partly drawn) [Example 233, [(3S,4R)-4-(4-Chloro-phenyl)-1-(5′-cyano-3,4,5,6-tetrahydro-2H-[1,2′]bipyridinyl-4-carbonyl)-pyrrolidin-3-yl]-methyl-carbamic acid tetrahydro-furan-3-ylmethyl ester]: the inhibition constant (Ki) is 6 nM. Turning to `CCC(C)(C)OC(=O)N(C)[C@@H]1CN(C(=O)C2CCN(c3ccc(C#N)cn3)CC2)C[C@H]1c1ccc(Cl)cc1` [Example 234, [(3S,4R)-4-(4-Chloro-phenyl)-1-(5′-cyano-3,4,5,6-tetrahydro-2H-[1,2′]bipyridinyl-4-carbonyl)-pyrrolidin-3-yl]-methyl-carbamic acid 1,1-dimethyl-propyl ester], the inhibitory constant (Ki) came out at 79.4 nM. Consider `CCC(OC(=O)N(C)[C@@H]1CN(C(=O)C2CCN(c3ccc(C#N)cn3)CC2)C[C@H]1c1ccc(Cl)cc1)c1ccc(F)cc1` (stereo partly drawn) [Example 236, [(3S,4R)-4-(4-Chloro-phenyl)-1-(5′-cyano-3,4,5,6-tetrahydro-2H-[1,2′]bipyridinyl-4-carbonyl)-pyrrolidin-3-yl]-methyl-carbamic acid 1-(4-fluoro-phenyl)-propyl ester], for which the Ki was 64.8 nM. As for `CN(C(=O)Oc1ccc(C#N)cc1F)[C@@H]1CN(C(=O)C2CCN(c3ccc(C#N)cn3)CC2)C[C@H]1c1ccc(Cl)cc1` [Example 237, [(3S,4R)-4-(4-Chloro-phenyl)-1-(5′-cyano-3,4,5,6-tetrahydro-2H-[1,2′]bipyridinyl-4-carbonyl)-pyrrolidin-3-yl]-methyl-carbamic acid 4-cyano-2-fluoro-phenyl ester], the Ki stood at 0.4 nM.

On to `COC1CCC(OC(=O)N(C)[C@@H]2CN(C(=O)C3CCN(c4ccc(C#N)cn4)CC3)C[C@H]2c2ccc(Cl)cc2)CC1` (stereo partly drawn) [Example 238, [(3S,4R)-4-(4-Chloro-phenyl)-1-(5′-cyano-3,4,5,6-tetrahydro-2H-[1,2′]bipyridinyl-4-carbonyl)-pyrrolidin-3-yl]-methyl-carbamic acid 4-methoxy-cyclohexyl ester], for which the inhibition constant Ki amounted to 48 nM. In the case of `CN(C(=O)OC(c1ccc(F)cc1)C1CC1)[C@@H]1CN(C(=O)C2CCN(c3ccc(C#N)cn3)CC2)C[C@H]1c1ccc(Cl)cc1` (stereo partly drawn) [Example 239, [(3S,4R)-4-(4-Chloro-phenyl)-1-(5′-cyano-3,4,5,6-tetrahydro-2H-[1,2′]bipyridinyl-4-carbonyl)-pyrrolidin-3-yl]-methyl-carbamic acid cyclopropyl-(4-fluoro-phenyl)-methyl ester], the Ki stood at 61.6 nM. For the molecule `CN(C(=O)O[C@]1(C(F)(F)F)CC[C@@H](C)CC1)[C@@H]1CN(C(=O)C2CCN(c3ccc(C#N)cn3)CC2)C[C@H]1c1ccc(Cl)cc1` [Example 240, [(3S,4R)-4-(4-Chloro-phenyl)-1-(5′-cyano-3,4,5,6-tetrahydro-2H-[1,2′]bipyridinyl-4-carbonyl)-pyrrolidin-3-yl]-methyl-carbamic acid 4-methyl-1-trifluoromethyl-cyclohexyl ester], the Ki was 22.8 nM.

`CN(C(=O)O[C@]1(C)CC[C@@H](C)CC1)[C@@H]1CN(C(=O)C2CCN(c3ccc(C#N)cn3)CC2)C[C@H]1c1ccc(Cl)cc1` [Example 242, [(3S,4R)-4-(4-Chloro-phenyl)-1-(5′-cyano-3,4,5,6-tetrahydro-2H-[1,2′]bipyridinyl-4-carbonyl)-pyrrolidin-3-yl]-methyl-carbamic acid 1,4-dimethyl-cyclohexyl ester]: the Ki under setting [1] is 2.7 nM.

As to `CN(C(=O)OC1(C)CCCC1)[C@@H]1CN(C(=O)C2CCN(c3ccc(C#N)cn3)CC2)C[C@H]1c1ccc(Cl)cc1` [Example 243, [(3S,4R)-4-(4-Chloro-phenyl)-1-(5′-cyano-3,4,5,6-tetrahydro-2H-[1,2′]bipyridinyl-4-carbonyl)-pyrrolidin-3-yl]-methyl-carbamic acid 1-methyl-cyclopentyl ester], under setting [1], the inhibitory constant (Ki) is 47.2 nM. For `CN(C(=O)Oc1ccc(Cl)cn1)[C@@H]1CN(C(=O)C2CCN(c3ccc(C#N)cn3)CC2)C[C@H]1c1ccc(Cl)cc1` [Example 244, [(3S,4R)-4-(4-Chloro-phenyl)-1-(5′-cyano-3,4,5,6-tetrahydro-2H-[1,2′]bipyridinyl-4-carbonyl)-pyrrolidin-3-yl]-methyl-carbamic acid 5-chloro-pyridin-2-yl ester], the inhibition constant Ki is 20.9 nM. `CN(C(=O)Oc1ccc(C#N)c(F)c1)[C@@H]1CN(C(=O)C2CCN(c3ccc(C#N)cn3)CC2)C[C@H]1c1ccc(Cl)cc1` [Example 245, [(3S,4R)-4-(4-Chloro-phenyl)-1-(5′-cyano-3,4,5,6-tetrahydro-2H-[1,2′]bipyridinyl-4-carbonyl)-pyrrolidin-3-yl]-methyl-carbamic acid 4-cyano-3-fluoro-phenyl ester]: the inhibitory constant (Ki) amounted to 1.1 nM. On to `CC(=O)N1CCC(C(=O)N2C[C@@H](N(C)C(=O)Oc3ccc(F)cc3)[C@H](c3ccc(Cl)cc3)C2)CC1` [Example 246, [(3S,4R)-1-(1-Acetyl-piperidine-4-carbonyl)-4-(4-chloro-phenyl)-pyrrolidin-3-yl]-methyl-carbamic acid 4-fluoro-phenyl ester], for which the Ki was 2.3 nM. As to `CN(C(=O)Oc1ccc(F)cc1)[C@@H]1CN(C(=O)C2CCN(C(=O)C3CCC3)CC2)C[C@H]1c1ccc(Cl)cc1` [Example 247, [(3S,4R)-4-(4-Chloro-phenyl)-1-(1-cyclobutanecarbonyl-piperidine-4-carbonyl)-pyrrolidin-3-yl]-methyl-carbamic acid 4-fluoro-phenyl ester], the inhibition constant Ki is 0.9 nM. On the same count and under the same terms, next, `CN(C(=O)Oc1ccc(F)cc1)[C@@H]1CN(C(=O)C2CCN(C(=O)C3(C)COC3)CC2)C[C@H]1c1ccc(Cl)cc1` [Example 248, {(3S,4R)-4-(4-Chloro-phenyl)-1-[1-(3-methyl-oxetane-3-carbonyl)-piperidine-4-carbonyl]-pyrrolidin-3-yl}-methyl-carbamic acid 4-fluoro-phenyl ester]: 2.8 nM; `CN(C(=O)Oc1ccc(F)cc1)[C@@H]1CN(C(=O)C2CCN(C(=O)C3CC(F)C3)CC2)C[C@H]1c1ccc(Cl)cc1` (stereo partly drawn) [Example 249, {(3S,4R)-4-(4-Chloro-phenyl)-1-[1-(3-fluoro-cyclobutanecarbonyl)-piperidine-4-carbonyl]-pyrrolidin-3-yl}-methyl-carbamic acid 4-fluoro-phenyl ester]: 1.9 nM.
